Nc1cccc2c1C(=O)N(C1CCC(=O)NC1=O)C2=O (stereo unspecified)
solubility (mole fraction)
Settings | 278.15 K | 283.15 K | 288.15 K | 293.15 K | 298.15 K | 303.15 K | 308.15 K | 313.15 K | 318.15 K
in acetone | 1.43e-06 | 2e-06 | 2.59e-06 | 3.32e-06 | 4.27e-06 | 5.32e-06 | 6.53e-06 | 7.84e-06 | 9.49e-06
in ethanol | 1.8e-07 | 2.4e-07 | 3.1e-07 | 4.1e-07 | 5.3e-07 | 6.8e-07 | 8.5e-07 | 1.04e-06 | 1.26e-06
in ethyl acetate | 4.5e-07 | 6.6e-07 | 9.3e-07 | 1.21e-06 | 1.55e-06 | 1.95e-06 | 2.38e-06 | 2.96e-06 | 3.62e-06
in isopropanol | 2.3e-07 | 3.4e-07 | 4.8e-07 | 6.3e-07 | 8.1e-07 | 1.02e-06 | 1.26e-06 | 1.56e-06 | 1.9e-06

— BigSolDB 2.1
